Consider four molecules from paper PMC11576293, “New series of 4,6-diaryl pyrimidines: facile synthesis and antiproliferative activity as dual EGFR/VEGFR-2 inhibitors” (Frontiers in Chemistry, 2024).

The subject of one assay is Bcl-2. Briefly: Bcl-2 inhibition assay. Format: cell-based, human. The conditions noted are these: A-549 cell line. The procedure: 4.2.8. Bcl-2 inhibition assay
Mix all reagents thoroughly without foaming before use. Wash the microwells twice with approximately 300 μL Wash Buffer per well with thorough aspiration of microwell contents between washes. Take caution not to scratch the surface of the microwells. After the last wash, empty the wells and tap microwell strips on absorbent pad or paper towel to remove excess Wash Buffer. Use the microwell strips immediately after washing or place upside down on a wet absorbent paper for not longer than 15 minutes. […] Add 100 μL of Sample […]
Diluent in duplicate to all standard wells and to the blank wells. Prepare standard (1:2 dilution) in duplicate ranging from 32 ng/mL to 0.5 ng/mL. Add 100 μL of Sample Diluent, in duplicate, to the blank wells. Add 80 μL of Sample Diluent, in duplicate, to the sample wells. Add 20 μL of each Sample, in duplicate, to the designated wells. Add 50 μL of diluted biotin-conjugate to all wells, including the blank wells. Cover with a plate cover and incubate at room temperature, on a microplate shaker at 100 rpm if available, for 2 hours. Remove plate cover and empty the wells.
Wash microwell strips 3 times as described in step 2. Add 100 μL of diluted Streptavidin-HRP to all wells, including the blank wells. Cover with a plate cover and incubate at room temperature, on a microplate shaker at 100 rpm if available, for 1 hour. Remove plate cover and empty the wells.
Wash microwell strips 3 times as described in step 2. Proceed to the next step. Pipette 100 μl of mixed TMB Substrate Solution to all wells, including the blanks. Incubate the microwell strips at room temperature (18° to 25°C) for about 15 minutes, if available on a rotator set at 100 rpm.
Avoid direct exposure to intense light. The point, at which the substrate reaction is stopped, is often determined by the ELISA reader. Many ELISA readers record absorbance only up to 2.0
O.D. Therefore, the color development within individual microwells must be watched by the person running the assay and the substrate reaction stopped before positive wells are no longer properly detectable. Stop the enzyme reaction by quickly pipetting 100 μL of Stop Solution into each well, including the blank wells. It is important that the Stop Solution is spread quickly and uniformly throughout the microwells to completely inactivate the enzyme. Results must be read immediately after the Stop Solution is added or within one hour i f the microwell strips are stored at 2 - 8°C in the dark. Read absorbance of each microwell on a spectrophotometer using 450 nm as the primary wavelength.

For assay [1], the system named is MCF-7 Breast Adenocarcinoma cell line. Briefly: Wound healing assay (supplement, Table S3). The settings on record: for Migration rate: Rm=Wi−Wf / t. Format: cell-based. The method, then:
4.3. Wound Healing Assay of MCF-7 Breast Adenocarcinoma
MCF-7 Breast Adenocarcinoma cell line was obtained from Nawah Scientific Inc., (Mokatam, Cairo, Egypt). Cells were maintained in DMEM media supplemented with […] of streptomycin, 100 units/mL of penicillin and 10% of heat-inactivated fetal bovine serum in humidified, 5% (v/v) CO2 atmosphere at 37 °C.
4.3.2. Wound healing assay
Cells were plated at a density of 2x10^5/well onto a coated 12-well plate for scratch wound assay and cultured overnight in 5% FBS-DMEM at 37 °C and 5% CO2. On the next day, horizontal scratches were introduced into the confluent monolayer; the plate was washed thoroughly with PBS, control wells were replenished with fresh medium while drug wells were treated with fresh media containing drug 26 and 27. Images were taken using an inverted microscope at the indicated time intervals. The plate was incubated at 37 °C and 5% CO2 in-between time points. The acquired […]
4.4. Wound Healing Assay Calculations
Wound width can be calculated as the average distance between the edges of the scratches; the wound width decreases as cell migration is induced. The results of compounds 26 and 27 were […]
Migration rate is calculated by dividing the time spent in migration according to the following

SMILES strings stand for the structures.

As for `COc1ccc(CSc2nc(-c3ccc(OC)cc3)cc(-c3cccc(OC)c3)n2)cc1` [Compound 22, 2-(4-Methoxybenzylthio)-6-(3-methoxyphenyl)-4-(4-methoxyphenyl)pyrimidine], the “Bcl-2 Conc” value in the assay on Bcl-2 is 0.90 ng/mL.

Consider `COc1ccc(-c2cc(-c3ccc(Cl)cc3)nc(SC(C)C)n2)cc1OC` [Compound 26, 4-(4-Chlorophenyl)-2-(isopropylthio)-6-(3,4-dimethoxyphenyl)pyrimidine], for which, in assay [1], the “Wound Width ±SD 0 h” value came to 1.01±0.02 mm, the “Wound Width ±SD 24 h” value is given as 0.76±0.04 mm, the “Wound closure % 24 h” value was 25% and the “Wound Width ±SD 48 h” value is 0.51±0.03 mm. For the same molecule, in assay [1], the “Wound closure % 48 h” value came out at 49.7%, the “Wound Width ±SD 72 h” value was 0 mm, the “Wound closure % 72 h” value is 100% and the Migration rate was 0.013.

For the molecule `C=CCSc1nc(-c2ccc(Cl)cc2)cc(-c2ccc(OC)c(OC)c2)n1` [Compound 27, 2-(Allylthio)-4-(4-chlorophenyl)-6-(3,4-dimethoxyphenyl)pyrimidine], in assay [1], the “Wound Width ±SD 0 h” value was 1±0.02 mm, the “Wound Width ±SD 24 h” value is 0.88±0.03 mm, the “Wound closure % 24 h” value is 11.3% and the “Wound Width ±SD 48 h” value was found to be 0.66±0.03 mm. Besides, in assay [1], the “Wound closure % 48 h” value came to 34%, the “Wound Width ±SD 72 h” value amounted to 0.2±0.18 mm, the “Wound closure % 72 h” value is 80% and the Migration rate is on record as 0.011.

Take `COc1ccc(CSc2nc(-c3ccc(Cl)cc3)cc(-c3ccc(OC)c(OC)c3)n2)cc1` [Compound 29, 2-(4-Methoxybenzylthio)-4-(4-chlorophenyl)-6-(3,4-dimethoxyphenyl)pyrimidine]: the “Bcl-2 Conc” value with Bcl-2 was 1.15 ng/mL. In the assay with Bcl-2 (versus control), the “Bcl-2 Fold reduction” value turned out to be 5 fold.
